From article PMC9837035 (Nature Communications, 2023)
Several values for one entry are separate records, joined by “and”; a condition that tells them apart may be missing. Equal values may be shown once.

Tests used:
[1] = system: H3K9me2 in peripheral blood; assay: H3K9me2 levels in peripheral blood of treated mice; format: in vivo
Description: Preparation of cell lysates and western blotting were performed as described previously. Protein from cells lysates in lysis buffer (50 mM Tris-HCl (pH 7.5), 150 mM NaCl, 5 mM EDTA, 0.1% NP-40, 1 mM dithiothreitol) were separated by sodium dodecyl sulfate–polyacrylamide gel electrophoresis (SDS-PAGE) and transferred to a polyvinylidene difluoride (PVDF) membrane (Millipore) by electroblotting. The membranes incubated with primary antibodies overnight at 4 °C and secondary antibodies for 1 h at room temperature. The immune complexes were detected with the Immobilon Western Chemiluminescent HRP Substrate (Millipore). Luminescence was analyzed on a FUSION SOLO S (Vilber). Western blot bands were visualized using Evolution Capt software (M&S Instruments Inc.). Primary antibodies used were anti-G9a (1:1000, CST, #3306), anti–α-tubulin (1:5000, Abcam, ab18251), anti-H3K9me2 (1:3000, Abcam, ab1220), anti-H3 (1:5000, Abcam, ab1791), anti-H3K27me3 (1:3000, Sigma, 07-449), anti-GLP (1:1000, CST, #35005), anti-FLAG (100 ng/ml, Fujifilm, 01422383), anti-His (1:5000, MBL, PM032), anti-BCL11A (1:1000, abcam, ab19487), anti-ZBTB7A (1:1000, CST, #50565), anti-CHD3 (1:1000, Novus Biologicals, NB100-60412), and anti-CHD4 (1:1000, abcam, ab240640). […]
The dosing solution contained 15% DMSO, 17.5% Cremophor EL, 8.75% EtOH, 8.75% HCO-40, and 50% PBS. […] The weight of each mouse was measured every 3 or 4 days.

[2] = Body weight of mice during 5-week administration; format: in vivo
Description: The dosing solution contained 15% DMSO, 17.5% Cremophor EL, 8.75% EtOH, 8.75% HCO-40, and 50% PBS. Blood samples were collected once a week by Retro Orbital Sampling (75 μL Calibrated Micropipette; Drummond Scientific Company) during isoflurane anesthesia. Blood RNA was extracted using NucleoSpin RNA Blood (Takara Bio Inc.). The weight of each mouse was measured every 3 or 4 days.

[3] = Mouse acute toxicity assay, body weight; format: in vivo, mice
Description: All animal studies were approved by the Institutional Committee for Animal Experiments of the Institute of Microbial Chemistry, and were performed in accordance with relevant guidelines and regulations to minimize animal suffering. Four-week-old female ICR mice were purchased from Charles River Breeding Laboratories (Yokohama, Japan) and maintained in a specific pathogen-free barrier facility. […] Samples were dissolved in saline containing 10% DMSO and 1% Tween 80 and injected intravenously into mice.

[4] = Liver microsomal stability assay, dog; format: in vitro ADME; conditions: for Metabolic stability, % remaining of RK-701: Dog
Description: (§1) [Human/Rat] Liver microsome analyses (human, rat) were performed in triplicate by the Sumika Chemical Analysis Service (SCAS) according to the standard protocols. […] [Dog/Monkey] Liver microsome analyses (dog, monkey) were performed in duplicate by RIKEN according to the same protocols as SCAS.

[5] = Liver microsomal stability assay, rat; format: in vitro ADME; conditions: for Metabolic stability, % remaining of RK-701: Rat
Description: as §1

PRMT6 = PRMT6 (Homo sapiens, UniProt Q96LA8)
EZH2 = EZH2 (Homo sapiens, UniProt Q15910); assay: Radioisotope-based methyltransferase assay (selectivity)
PRMT7 = PRMT7 (Homo sapiens, UniProt Q9NVM4); assay: as above
Sequence of PRMT7 (Q9NVM4 whole entry): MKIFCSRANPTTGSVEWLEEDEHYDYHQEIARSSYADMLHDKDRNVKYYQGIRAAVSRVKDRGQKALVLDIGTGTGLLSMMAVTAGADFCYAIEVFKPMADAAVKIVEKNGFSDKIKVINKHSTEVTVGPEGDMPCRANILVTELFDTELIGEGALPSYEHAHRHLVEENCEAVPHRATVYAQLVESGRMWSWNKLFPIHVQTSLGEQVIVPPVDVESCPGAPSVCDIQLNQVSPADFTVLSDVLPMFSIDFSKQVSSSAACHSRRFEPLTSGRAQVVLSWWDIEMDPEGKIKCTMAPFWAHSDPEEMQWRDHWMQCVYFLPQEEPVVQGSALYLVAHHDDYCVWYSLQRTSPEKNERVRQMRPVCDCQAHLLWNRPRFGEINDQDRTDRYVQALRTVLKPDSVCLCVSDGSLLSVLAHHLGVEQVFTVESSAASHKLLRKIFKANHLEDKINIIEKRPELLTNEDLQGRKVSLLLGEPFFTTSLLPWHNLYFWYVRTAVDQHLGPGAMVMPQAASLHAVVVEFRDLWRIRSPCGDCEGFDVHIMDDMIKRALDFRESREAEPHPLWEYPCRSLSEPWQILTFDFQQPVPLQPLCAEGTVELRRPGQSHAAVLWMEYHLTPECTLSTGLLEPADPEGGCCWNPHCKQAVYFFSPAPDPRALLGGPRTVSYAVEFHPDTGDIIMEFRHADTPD

Sequence of PRMT6 (Q96LA8 whole entry): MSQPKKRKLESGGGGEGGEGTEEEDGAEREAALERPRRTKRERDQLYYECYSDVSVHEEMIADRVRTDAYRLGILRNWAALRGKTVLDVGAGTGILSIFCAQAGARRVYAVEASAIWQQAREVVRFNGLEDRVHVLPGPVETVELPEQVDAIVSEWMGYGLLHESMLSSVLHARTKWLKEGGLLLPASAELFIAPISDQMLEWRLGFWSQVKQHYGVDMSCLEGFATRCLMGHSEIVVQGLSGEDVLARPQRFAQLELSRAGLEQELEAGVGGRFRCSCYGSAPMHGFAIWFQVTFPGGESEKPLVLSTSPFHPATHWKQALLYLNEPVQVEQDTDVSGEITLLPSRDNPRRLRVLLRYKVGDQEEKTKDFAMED
Sequence of EZH2 (Q15910 whole entry): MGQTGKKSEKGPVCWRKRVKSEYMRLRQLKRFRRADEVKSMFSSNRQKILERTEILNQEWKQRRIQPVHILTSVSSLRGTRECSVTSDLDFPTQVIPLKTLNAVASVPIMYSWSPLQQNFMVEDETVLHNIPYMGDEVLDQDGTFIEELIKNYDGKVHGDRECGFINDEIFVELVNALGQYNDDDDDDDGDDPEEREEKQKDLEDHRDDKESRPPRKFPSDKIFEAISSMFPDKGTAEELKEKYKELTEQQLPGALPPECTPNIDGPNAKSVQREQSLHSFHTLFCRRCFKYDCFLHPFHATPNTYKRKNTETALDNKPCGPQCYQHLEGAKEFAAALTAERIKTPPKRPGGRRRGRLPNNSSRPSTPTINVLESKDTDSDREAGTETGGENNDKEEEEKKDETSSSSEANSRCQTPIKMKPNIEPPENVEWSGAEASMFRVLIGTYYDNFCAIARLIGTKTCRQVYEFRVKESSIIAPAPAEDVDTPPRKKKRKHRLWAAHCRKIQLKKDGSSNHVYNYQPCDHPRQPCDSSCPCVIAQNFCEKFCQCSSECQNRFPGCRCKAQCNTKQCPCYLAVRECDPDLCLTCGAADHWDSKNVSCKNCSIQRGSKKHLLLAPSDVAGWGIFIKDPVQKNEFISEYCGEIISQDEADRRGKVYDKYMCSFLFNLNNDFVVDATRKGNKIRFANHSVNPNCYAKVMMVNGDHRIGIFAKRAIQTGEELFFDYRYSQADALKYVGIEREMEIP
Sequence of EZH2 (O75530 whole entry partner): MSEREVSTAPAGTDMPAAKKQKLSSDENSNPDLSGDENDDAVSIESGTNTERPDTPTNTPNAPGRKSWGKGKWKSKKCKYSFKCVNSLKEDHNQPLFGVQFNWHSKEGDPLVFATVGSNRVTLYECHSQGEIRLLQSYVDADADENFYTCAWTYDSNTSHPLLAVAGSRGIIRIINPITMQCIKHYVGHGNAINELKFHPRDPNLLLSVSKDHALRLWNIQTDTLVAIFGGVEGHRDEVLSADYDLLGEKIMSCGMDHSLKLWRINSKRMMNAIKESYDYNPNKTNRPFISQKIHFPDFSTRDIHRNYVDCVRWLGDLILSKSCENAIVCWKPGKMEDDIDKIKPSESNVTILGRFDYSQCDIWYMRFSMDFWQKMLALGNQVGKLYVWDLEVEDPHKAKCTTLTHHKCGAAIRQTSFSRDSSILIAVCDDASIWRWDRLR
Sequence of EZH2 (Q15022 whole entry partner): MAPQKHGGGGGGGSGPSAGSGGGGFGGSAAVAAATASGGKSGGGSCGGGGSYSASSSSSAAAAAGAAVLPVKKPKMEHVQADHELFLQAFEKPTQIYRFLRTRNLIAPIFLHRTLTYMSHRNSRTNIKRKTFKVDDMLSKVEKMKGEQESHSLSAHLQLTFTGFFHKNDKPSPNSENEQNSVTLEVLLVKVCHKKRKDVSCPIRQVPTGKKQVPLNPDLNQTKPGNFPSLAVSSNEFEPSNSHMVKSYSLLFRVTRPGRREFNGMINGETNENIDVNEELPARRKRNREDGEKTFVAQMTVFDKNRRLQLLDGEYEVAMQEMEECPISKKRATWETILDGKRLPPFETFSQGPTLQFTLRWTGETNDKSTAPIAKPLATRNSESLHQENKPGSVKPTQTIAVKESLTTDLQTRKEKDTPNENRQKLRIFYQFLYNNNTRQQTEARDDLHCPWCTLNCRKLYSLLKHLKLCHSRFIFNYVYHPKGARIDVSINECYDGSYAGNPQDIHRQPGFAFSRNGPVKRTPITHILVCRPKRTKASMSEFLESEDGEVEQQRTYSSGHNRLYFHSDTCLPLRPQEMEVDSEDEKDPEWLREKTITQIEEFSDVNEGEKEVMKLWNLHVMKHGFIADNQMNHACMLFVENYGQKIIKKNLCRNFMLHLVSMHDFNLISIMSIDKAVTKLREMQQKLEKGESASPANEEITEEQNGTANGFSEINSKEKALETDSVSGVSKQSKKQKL
Sequence of EZH2 (Q09028 whole entry partner): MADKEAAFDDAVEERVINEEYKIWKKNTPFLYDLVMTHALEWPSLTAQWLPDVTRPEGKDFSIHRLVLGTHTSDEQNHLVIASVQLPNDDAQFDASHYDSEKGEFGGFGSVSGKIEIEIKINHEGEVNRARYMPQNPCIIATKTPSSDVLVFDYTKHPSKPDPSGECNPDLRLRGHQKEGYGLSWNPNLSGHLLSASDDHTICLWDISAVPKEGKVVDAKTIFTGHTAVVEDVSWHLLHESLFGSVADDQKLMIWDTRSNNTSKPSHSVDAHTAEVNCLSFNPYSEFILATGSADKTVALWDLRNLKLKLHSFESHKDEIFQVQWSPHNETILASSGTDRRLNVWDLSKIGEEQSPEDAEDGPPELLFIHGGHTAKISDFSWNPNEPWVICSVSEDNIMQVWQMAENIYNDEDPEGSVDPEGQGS
Sequence of EZH2 (Q6ZN18 whole entry partner): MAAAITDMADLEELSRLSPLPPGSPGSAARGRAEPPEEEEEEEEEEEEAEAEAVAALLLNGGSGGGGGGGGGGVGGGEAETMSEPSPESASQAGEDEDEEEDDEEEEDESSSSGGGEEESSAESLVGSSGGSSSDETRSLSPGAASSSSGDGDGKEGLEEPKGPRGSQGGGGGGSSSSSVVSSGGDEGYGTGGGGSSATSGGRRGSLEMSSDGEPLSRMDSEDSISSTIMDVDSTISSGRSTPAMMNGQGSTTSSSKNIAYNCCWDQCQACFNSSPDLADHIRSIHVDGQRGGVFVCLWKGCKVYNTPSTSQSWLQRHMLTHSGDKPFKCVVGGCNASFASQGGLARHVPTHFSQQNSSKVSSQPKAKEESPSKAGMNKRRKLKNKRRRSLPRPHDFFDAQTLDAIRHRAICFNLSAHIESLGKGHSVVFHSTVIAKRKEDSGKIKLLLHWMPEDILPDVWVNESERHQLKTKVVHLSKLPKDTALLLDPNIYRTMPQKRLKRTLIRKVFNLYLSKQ

Cc1c(C(=O)NC(CCC2CC2)C(=O)Nc2ccc(C#N)cc2)[nH]c2c1C(=O)CC(C)(C)C2 (stereo not drawn) [RK-701]
H3K9me2 levels in peripheral blood cells [1]: significant decrease
body weight of individual mice ([2]; 20 mg/kg i.p., Day 0): 17.8 g and 17.5 g and 16.8 g and 16.2 g and 16.4 g
body weight of individual mice ([2]; 20 mg/kg i.p., Day 4): 18.5 g and 17.7 g and 17.3 g and 17.2 g and 16.8 g and 17.4 g
body weight of individual mice ([2]; 20 mg/kg i.p., Day 8): 18.4 g and 18.1 g and 17.4 g and 17.7 g and 16.7 g and 17.8 g
body weight of individual mice ([2]; 20 mg/kg i.p., Day 11): 18.6 g and 18.2 g and 17.5 g and 17.6 g and 16.5 g and 17.1 g
body weight of individual mice ([2]; 20 mg/kg i.p., Day 15): 18.7 g and 18.1 g and 17.7 g and 18.2 g and 16.6 g
body weight of individual mice ([2]; 20 mg/kg i.p., Day 18): 19.3 g and 18.2 g and 17.8 g and 16.6 g
body weight of individual mice ([2]; 20 mg/kg i.p., Day 22): 18 g and 19 g and 18.5 g and 17 g and 18.6 g
body weight of individual mice ([2]; 20 mg/kg i.p., Day 25): 20.2 g and 19.5 g and 17.7 g and 18.3 g and 17.8 g and 18.8 g
body weight of individual mice ([2]; 20 mg/kg i.p., Day 29): 20.4 g and 18.2 g and 19.8 g and 18.7 g and 16 g and 18.5 g
body weight of individual mice ([2]; 20 mg/kg i.p., Day 32): 19.9 g and 20 g and 19 g and 19.7 g and 19.6 g
body weight of individual mice ([2]; 50 mg/kg i.p., Day 0): 14.7 g and 16.5 g and 17.3 g and 16.4 g and 17.4 g
body weight of individual mice ([2]; 50 mg/kg i.p., Day 4): 15.3 g and 18.3 g and 17.7 g and 17.3 g and 17.8 g
body weight of individual mice ([2]; 50 mg/kg i.p., Day 8): 14.8 g and 17.7 g and 18.3 g and 18.1 g
body weight of individual mice ([2]; 50 mg/kg i.p., Day 11): 16 g and 18 g and 18.7 g and 17.9 g and 18.5 g
body weight of individual mice ([2]; 50 mg/kg i.p., Day 15): 15 g and 18 g and 19.1 g and 17.9 g and 18.5 g
body weight of individual mice ([2]; 50 mg/kg i.p., Day 18): 15.1 g and 18.4 g and 19.3 g and 19.5 g
body weight of individual mice ([2]; 50 mg/kg i.p., Day 22): 15.5 g and 18.9 g and 19.7 g and 19.8 g
body weight of individual mice ([2]; 50 mg/kg i.p., Day 25): 16.7 g and 19.1 g and 20.6 g and 19.9 g and 20.4 g
body weight of individual mice ([2]; 50 mg/kg i.p., Day 29): 16.3 g and 18.4 g and 19.6 g and 19 g and 20 g
body weight of individual mice ([2]; 50 mg/kg i.p., Day 32): 16.7 g and 19.5 g and 21.2 g and 20 g
mouse body weights ([2]; five-week continuous administration): no effect on mouse body weights
The body weight of individual mice ([3]; 12.5 mg/kg, Day0): 24.94 g
The body weight of individual mice ([3]; 12.5 mg/kg, Day1): 24.39 g
The body weight of individual mice ([3]; 12.5 mg/kg, Day3): 26.32 g and 24.79 g
The body weight of individual mice ([3]; 12.5 mg/kg, Day5): 26.12 g and 25.27 g and 26.24 g
The body weight of individual mice ([3]; 12.5 mg/kg, Day7): 26.84 g and 25.44 g and 25.63 g
The body weight of individual mice ([3]; 12.5 mg/kg, Day9): 26.98 g and 26.32 g and 26.65 g
The body weight of individual mice ([3]; 12.5 mg/kg, Day11): 27.95 g and 26.07 g and 25.28 g
The body weight of individual mice ([3]; 12.5 mg/kg, Day14): 27.71 g and 26.81 g and 27.50 g
The body weight of individual mice ([3]; 25 mg/kg, Day0): 23.49 g and 24.32 g and 24.36 g
The body weight of individual mice ([3]; 25 mg/kg, Day1): 23.24 g and 25.05 g and 21.93 g
The body weight of individual mice ([3]; 25 mg/kg, Day2): 24.39 g and 26.13 g and 23.16 g
The body weight of individual mice ([3]; 25 mg/kg, Day3): 24.09 g and 26.66 g and 23.50 g
The body weight of individual mice ([3]; 25 mg/kg, Day4): 24.79 g and 27.09 g and 24.50 g
The body weight of individual mice ([3]; 25 mg/kg, Day5): 25.11 g and 26.53 g and 25.43 g
The body weight of individual mice ([3]; 25 mg/kg, Day7): 25.92 g and 26.25 g and 25.57 g
The body weight of individual mice ([3]; 25 mg/kg, Day9): 25.69 g and 26.57 g and 26.31 g
The body weight of individual mice ([3]; 25 mg/kg, Day11): 26.68 g and 27.09 g and 27.51 g
The body weight of individual mice ([3]; 25 mg/kg, Day14): 26.24 g and 26.26 g and 28.11 g
The body weight of individual mice ([3]; 50 mg/kg, Day0): 22.18 g and 23.36 g and 23.10 g
The body weight of individual mice ([3]; 50 mg/kg, Day1): 22.71 g and 22.55 g and 24.93 g
The body weight of individual mice ([3]; 50 mg/kg, Day2): 23.39 g and 22.67 g and 25.00 g
The body weight of individual mice ([3]; 50 mg/kg, Day3): 24.41 g and 22.89 g and 25.00 g
The body weight of individual mice ([3]; 50 mg/kg, Day4): 24.33 g and 23.75 g and 26.48 g
The body weight of individual mice ([3]; 50 mg/kg, Day5): 24.37 g and 24.57 g and 26.83 g
The body weight of individual mice ([3]; 50 mg/kg, Day7): 25.33 g and 23.96 g and 27.23 g
The body weight of individual mice ([3]; 50 mg/kg, Day9): 25.95 g and 24.94 g and 26.92 g
The body weight of individual mice ([3]; 50 mg/kg, Day11): 26.83 g and 25.42 g and 28.13 g
The body weight of individual mice ([3]; 50 mg/kg, Day14): 27.45 g and 26.37 g and 28.85 g
The body weight of individual mice ([3]; 100 mg/kg, Day0): 22.92 g and 23.08 g and 22.86 g
The body weight of individual mice ([3]; 100 mg/kg, Day1): 21.12 g and 23.93 g and 21.40 g
The body weight of individual mice ([3]; 100 mg/kg, Day2): 22.69 g and 24.09 g and 22.95 g
The body weight of individual mice ([3]; 100 mg/kg, Day3): 23.07 g
acute toxicity, body weight ([3]; mouse, in vivo, iv): no significant body weight loss
Metabolic stability, % remaining of RK-701 ([4]; Time 5, replicate values): 67.6%
Metabolic stability, % remaining of RK-701 ([4]; Time 10, replicate values): 70.7% and 62.6%
Metabolic stability, % remaining of RK-701 ([4]; Time 20, replicate values): 60.6% and 44.6%
Metabolic stability, % remaining of RK-701 ([4]; Time 30, replicate values): 51.3% and 40.3%
Metabolic stability, % remaining of RK-701 ([4]; Time 45, replicate values): 47% and 30%
Metabolic stability, % remaining of RK-701 ([4]; Time 60, replicate values): 37.6% and 29.4%
remaining at 5 min, 1 µM ([4]; dog, liver microsomes, Metabolic stability, % remaining of RK-701, Dog, Time 5, replicate values): 72.6%
remaining at 10 min, 1 µM ([4]; dog, liver microsomes, Metabolic stability, % remaining of RK-701, Dog, Time 10, replicate values): 57%
remaining at 20 min, 1 µM ([4]; dog, liver microsomes, Metabolic stability, % remaining of RK-701, Dog, Time 20, replicate values): 53.4%
remaining at 30 min, 1 µM ([4]; dog, liver microsomes, Metabolic stability, % remaining of RK-701, Dog, Time 30, replicate values): 48.4%
remaining at 45 min, 1 µM ([4]; dog, liver microsomes, Metabolic stability, % remaining of RK-701, Dog, Time 45, replicate values): 37.1%
remaining at 60 min, 1 µM ([4]; dog, liver microsomes, Metabolic stability, % remaining of RK-701, Dog, Time 60, replicate values): 30.9%
microsomal CLint at 1 μM ([4]; dog, liver microsomes, Dug, read-out: Metabolic stability in liver microsomes CLint): 28 µL/min/mg
Metabolic stability, % remaining of RK-701 ([5]; Time 5, replicate values): 89% and 81.8%
Metabolic stability, % remaining of RK-701 ([5]; Time 10, replicate values): 86.2% and 80.2%
Metabolic stability, % remaining of RK-701 ([5]; Time 20, replicate values): 63% and 58.9%
Metabolic stability, % remaining of RK-701 ([5]; Time 30, replicate values): 53.3% and 55.8%
Metabolic stability, % remaining of RK-701 ([5]; Time 60, replicate values): 36.1% and 33.5%
remaining at 5 min, 1 µM ([5]; rat, liver microsomes, Metabolic stability, % remaining of RK-701, Rat, Time 5, replicate values): 89.1%
remaining at 10 min, 1 µM ([5]; rat, liver microsomes, Metabolic stability, % remaining of RK-701, Rat, Time 10, replicate values): 83.1%
remaining at 20 min, 1 µM ([5]; rat, liver microsomes, Metabolic stability, % remaining of RK-701, Rat, Time 20, replicate values): 61.7%
remaining at 60 min, 1 µM ([5]; rat, liver microsomes, Metabolic stability, % remaining of RK-701, Rat, Time 60, replicate values): 35.6%
microsomal CLint at 1 μM ([5]; rat, liver microsomes, read-out: Metabolic stability in liver microsomes CLint): 33 µL/min/mg
IC50 (PRMT6): > 100 µM
IC50 (EZH2): > 100 µM
IC50 (PRMT7): > 100 µM
